Usually EC50 stands for the concentration at which the effect is half-maximal. A higher EC50 goes with weaker potency.

Assay [1] can be described thus: Decrease in lizard skin reflectivity ([…] activity). The format is functional.
For assay [2], the target named is frog skin melanocortin receptor (Rana pipiens). Nature of the assay: Decrease in frog skin reflectivity ([…] activity).
The next assay concerns lizard. Briefly: Relative potency compared to alpha MSH in a lizard skin bioassay. In kind it is functional.
Assay [3] deals with frog skin melanocortin receptor (Rana pipiens). Briefly: Relative potency compared to alpha MSH in a frog skin bioassay.

With `CCCC[C@H](NC(=O)[C@H](CO)NC(=O)[C@H](Cc1ccc(O)cc1)NC(=O)[C@H](CO)NC(C)=O)C(=O)N[C@@H](CCC(=O)O)C(=O)N[C@@H](Cc1c[nH]cn1)C(=O)N[C@H](C(=O)N[C@@H](CCCN=C(N)N)C(=O)N[C@@H](Cc1c[nH]c2ccccc12)C(=O)NCC(=O)N[C@@H](CCCCN)C(=O)N1CCC[C@H]1C(=O)N[C@H](C(N)=O)C(C)C)[C@H](C)c1ccccc1`, the EC50 in assay [1] was determined as 1 nM.
On to `CCCC[C@H](NC(=O)[C@H](CO)NC(=O)[C@H](Cc1ccc(O)cc1)NC(=O)[C@H](CO)NC(C)=O)C(=O)N[C@@H](CCC(=O)O)C(=O)N[C@@H](Cc1c[nH]cn1)C(=O)N[C@H](C(=O)N[C@@H](CCCN=C(N)N)C(=O)N[C@@H](Cc1c[nH]c2ccccc12)C(=O)NCC(=O)N[C@@H](CCCCN)C(=O)N1CCC[C@H]1C(=O)N[C@H](C(N)=O)C(C)C)[C@@H](C)c1ccccc1`, for which, in assay [1], the response was half-maximal at 3.33 nM (EC50).
On the same count and under the same terms, under `CCCC[C@H](NC(C)=O)C(=O)N[C@H]1CC(=O)NCCCC[C@@H](C(N)=O)NC(=O)[C@H]([C@@H](C)c2c[nH]c3ccccc23)NC(=O)[C@H](CCCN=C(N)N)NC(=O)[C@@H](Cc2ccccc2)NC(=O)[C@H](Cc2c[nH]cn2)NC1=O` stands 1 nM.
`CCCC[C@H](NC(C)=O)C(=O)N[C@H]1CC(=O)NCCCC[C@@H](C(N)=O)NC(=O)[C@H]2Cc3c([nH]c4ccccc34)CN2C(=O)[C@H](CCCNC(=N)N)NC(=O)[C@@H](Cc2ccccc2)NC(=O)[C@H](Cc2cnc[nH]2)NC1=O`: the EC50 is 11.1 nM in assay [1] and 1 nM in assay [2].
The like results for `CCCC[C@H](NC(C)=O)C(=O)N[C@H]1CC(=O)NCCCC[C@@H](C(N)=O)NC(=O)[C@@H]2Cc3c([nH]c4ccccc34)CN2C(=O)[C@H](CCCNC(=N)N)NC(=O)[C@@H](Cc2ccccc2)NC(=O)[C@H](Cc2cnc[nH]2)NC1=O` were, in that order, 20 nM and 3.33 nM.
For `CCCC[C@H](NC(C)=O)C(=O)N[C@H]1CC(=O)NCCCC[C@H](C(N)=O)NC(=O)[C@H]([C@@H](C)c2c[nH]c3ccccc23)NC(=O)[C@H](CCCN=C(N)N)NC(=O)[C@@H](Cc2ccccc2)NC(=O)[C@H](Cc2c[nH]cn2)NC1=O`, the Relative potency worked out at 1 in the assay with lizard and 0.23 in assay [3].
`CCCC[C@H](NC(C)=O)C(=O)N[C@H]1CC(=O)NCCCCC(C(N)=O)NC(=O)[C@H](Cc2c[nH]c3ccccc23)NC(=O)[C@H](CCCN=C(N)N)NC(=O)[C@@H]([C@@H](C)c2ccccc2)NC(=O)[C@H](Cc2c[nH]cn2)NC1=O` (single isomer, unassigned): the EC50 in assay [1] came out at 0.3 nM; in assay [2], 2 nM. Besides, the Relative potency in the assay on lizard stood at 3.3; in assay [3] it was 0.05.
In the same order, the values of `CCCC[C@H](NC(C)=O)C(=O)N[C@H]1CC(=O)NCCCCC(C(N)=O)NC(=O)[C@H](Cc2c[nH]c3ccccc23)NC(=O)[C@H](CCCN=C(N)N)NC(=O)C([C@@H](C)c2ccccc2)NC(=O)[C@H](Cc2c[nH]cn2)NC1=O` (single isomer, unassigned) are 3.44 nM, 6.25 nM, 0.29 and 0.016.
In turn, `CCCC[C@H](NC(C)=O)C(=O)N[C@H]1CC(=O)NCCCCC(C(N)=O)NC(=O)[C@H]([C@H](C)c2c[nH]c3ccccc23)NC(=O)[C@H](CCCN=C(N)N)NC(=O)C(Cc2ccccc2)NC(=O)[C@H](Cc2c[nH]cn2)NC1=O` (single isomer, unassigned) showed an EC50 in assay [1] of 6.67 nM. Moreover, the Relative potency in the assay with lizard came to 0.15; in assay [3], 0.004.
Take `CCCC[C@H](NC(C)=O)C(=O)N[C@H]1CC(=O)NCCCCC(C(N)=O)NC(=O)[C@H](Cc2c[nH]c3ccccc23)NC(=O)[C@H](CCCN=C(N)N)NC(=O)[C@@H]([C@H](C)c2ccccc2)NC(=O)[C@H](Cc2c[nH]cn2)NC1=O` (single isomer, unassigned; 5) [listing 1 of 2 here]: the EC50 was found to be 0.2 nM in assay [1] and 6.25 nM in assay [2].
On to `CCCC[C@H](NC(C)=O)C(=O)N[C@H]1CC(=O)NCCCCC(C(N)=O)NC(=O)[C@H](Cc2c[nH]c3ccccc23)NC(=O)[C@H](CCCN=C(N)N)NC(=O)[C@@H]([C@H](C)c2ccccc2)NC(=O)[C@H](Cc2c[nH]cn2)NC1=O` (single isomer, unassigned; 5) [listing 2 of 2 here], for which the Relative potency was 5 in the assay on lizard and 0.016 in assay [3].
`CCCC[C@H](NC(C)=O)C(=O)N[C@H]1CC(=O)NCCCCC(C(N)=O)NC(=O)[C@H](Cc2c[nH]c3ccccc23)NC(=O)[C@H](CCCN=C(N)N)NC(=O)[C@@H]([C@H](C)c2ccccc2)NC(=O)[C@H](Cc2c[nH]cn2)NC1=O` (single isomer, unassigned; 7) [listing 1 of 2 here]: the EC50 in assay [1] was found to be 20 nM; in assay [2], 16.7 nM.
As to `CCCC[C@H](NC(C)=O)C(=O)N[C@H]1CC(=O)NCCCCC(C(N)=O)NC(=O)[C@H](Cc2c[nH]c3ccccc23)NC(=O)[C@H](CCCN=C(N)N)NC(=O)[C@@H]([C@H](C)c2ccccc2)NC(=O)[C@H](Cc2c[nH]cn2)NC1=O` (single isomer, unassigned; 7) [listing 2 of 2 here], the results for the Relative potency (in the assay on lizard; in assay [3]) were 0.05 and 0.006, respectively.
In the case of `CCCC[C@H](NC(C)=O)C(=O)N[C@H]1CC(=O)NCCCCC(C(N)=O)NC(=O)C([C@H](C)c2c[nH]c3ccccc23)NC(=O)[C@H](CCCN=C(N)N)NC(=O)C(Cc2ccccc2)NC(=O)[C@H](Cc2c[nH]cn2)NC1=O` (single isomer, unassigned; 10) [listing 1 of 2 here], the EC50 in assay [1] was 1.43 nM; in assay [2], 0.06 nM.
As to `CCCC[C@H](NC(C)=O)C(=O)N[C@H]1CC(=O)NCCCCC(C(N)=O)NC(=O)C([C@H](C)c2c[nH]c3ccccc23)NC(=O)[C@H](CCCN=C(N)N)NC(=O)C(Cc2ccccc2)NC(=O)[C@H](Cc2c[nH]cn2)NC1=O` (single isomer, unassigned; 10) [listing 2 of 2 here], the Relative potency in the assay on lizard stood at 0.7; in assay [3] it was 1.6.
`CCCC[C@H](NC(C)=O)C(=O)N[C@H]1CC(=O)NCCCCC(C(N)=O)NC(=O)C([C@H](C)c2c[nH]c3ccccc23)NC(=O)[C@H](CCCN=C(N)N)NC(=O)C(Cc2ccccc2)NC(=O)[C@H](Cc2c[nH]cn2)NC1=O` (single isomer, unassigned; 11) [listing 1 of 2 here]: the concentration for a half-maximal effect (EC50) in assay [1] was found to be 1 nM; in assay [2], 0.33 nM.
Regarding `CCCC[C@H](NC(C)=O)C(=O)N[C@H]1CC(=O)NCCCCC(C(N)=O)NC(=O)C([C@H](C)c2c[nH]c3ccccc23)NC(=O)[C@H](CCCN=C(N)N)NC(=O)C(Cc2ccccc2)NC(=O)[C@H](Cc2c[nH]cn2)NC1=O` (single isomer, unassigned; 11) [listing 2 of 2 here], the Relative potency in the assay with lizard was found to be 1; in assay [3] it was 0.3.
Regarding `CCCC[C@H](NC(=O)[C@H](CO)NC(=O)[C@H](Cc1ccc(O)cc1)NC(=O)[C@H](CO)NC(C)=O)C(=O)N[C@@H](CCC(=O)O)C(=O)N[C@@H](Cc1c[nH]cn1)C(=O)N[C@@H](C(=O)N[C@@H](CCCN=C(N)N)C(=O)N[C@@H](Cc1c[nH]c2ccccc12)C(=O)NCC(=O)N[C@@H](CCCCN)C(=O)N1CCC[C@H]1C(=O)N[C@H](C(N)=O)C(C)C)[C@@H](C)c1ccccc1` (stereo in doubt; 16), in assay [1], a half-maximal effect (EC50) was put at 0.5 nM.
Same read-out and setting: under `CCCC[C@H](NC(=O)[C@H](CO)NC(=O)[C@H](Cc1ccc(O)cc1)NC(=O)[C@H](CO)NC(C)=O)C(=O)N[C@@H](CCC(=O)O)C(=O)N[C@@H](Cc1c[nH]cn1)C(=O)N[C@@H](C(=O)N[C@@H](CCCN=C(N)N)C(=O)N[C@@H](Cc1c[nH]c2ccccc12)C(=O)NCC(=O)N[C@@H](CCCCN)C(=O)N1CCC[C@H]1C(=O)N[C@H](C(N)=O)C(C)C)[C@@H](C)c1ccccc1` (stereo in doubt; 17) stands 1 nM.
